The results in this text go back to patent publication US10654834B2 (Venenum Biodesign, LLC, priority 2016, dated 2020).

pEC50: −log10 of the molar value.

The subject of one data set is Mouse STC-1 cells. The data set can be described thus: STC-1 GLP-1 assay (GLP-1 secretion). The settings on record: Mouse STC-1 cells, GLP-1 secretion, 2 h; read-out: Mouse STC-1 HTRF GLP-1 Activity (EC50). Type of data set: cell-based. As to the method: Compounds of the present invention were evaluated for their ability to induce GLP-1 production in mouse intestinal neuroendocrine tumor cells.
Mouse STC-1 cells were cultured and maintained in high glucose DMEM (Sigma #5796) supplemented with 15% horse serum, 5% Fetal Bovine Serum (FBS), 1%° penicillin/streptomycin, and 2 mM L-alanine L-glutamine (GlutaMax). Two days prior to analysis of GLP-1 secretion cells were harvested using Accutase (Sigma), spun down then resuspended in high glucose DMEM media containing 2 mM L-alanine L-glutamine (GlutaMax), 10% charcoal-dextran stripped FBS, and 50 μg/mL Gentamicin, at a density of 100,000° cells/mL. 100 μL of cell suspension was added to each well of a 96-well Poly-D-Lysine coated culture plate (Sigma; cat #2382493) and was incubated at 37° C. with 5% CO2.
Compounds were initially diluted in 100% DMSO (12-point serial dilution by half logs) in a 96-well plate and then were further diluted 1:500 in Hanks' Balanced Salt Solution (HBSS) containing protease inhibitor cocktail, DPP-IV inhibitor, and 0.1% fatty acid free bovine serum albumin. On the day of the experiment cells were washed once with HBSS. After wash, 100 μL of test compound was added to each well. The plate was incubated at 37° C. with 5% CO2 for 2° h. Supernatants were collected and GLP-1 secretion was measured using the Cisbio™ Active GLP-1 HTRF Assay Kit (CisBio). Briefly, Anti-GLP-1-d2 conjugate and Anti-GLP-1 Terbium Cryptate conjugate stock solutions were prepared as per kit instructions. The two solutions were pre-mixed and 10 μL were transferred to a 384-well low volume plate (Greiner; cat #784075). 10 μL of collected supernatants were added to wells already containing the conjugate solution. The plate was covered and incubated at room temperature overnight. The plate was read on an Envision™ plate reader (PerkinElmer).
In Table 53, EC50 values were obtained from the STC-1 GLP-1 production assay for compounds of the present invention are summarized.

The target of another data set is T1, human TGR5 receptor (Homo sapiens, UniProt Q8TDU6).
T1 construct: host or cells: CHO-K1 (hTGR5-CHO)
T1 sequence (Q8TDU6 1-330): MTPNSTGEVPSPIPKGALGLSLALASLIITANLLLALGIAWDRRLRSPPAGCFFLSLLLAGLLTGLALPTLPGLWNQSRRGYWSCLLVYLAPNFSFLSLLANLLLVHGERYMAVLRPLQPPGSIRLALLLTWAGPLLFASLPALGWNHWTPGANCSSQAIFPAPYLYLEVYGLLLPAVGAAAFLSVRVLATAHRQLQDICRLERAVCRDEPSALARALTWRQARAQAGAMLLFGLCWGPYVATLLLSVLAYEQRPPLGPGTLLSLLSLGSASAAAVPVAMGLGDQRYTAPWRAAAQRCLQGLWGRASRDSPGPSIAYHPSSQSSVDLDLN
The data set can be described thus: Human TGR5 cAMP production assay (hTGR5-CHO cells, DiscoveRx cAMP XS+ kit). The class given is cell-based. The settings on record: luminescent cAMP assay, read-out: Human TGR5 Lum. cAMP Activity (EC50). In outline: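 CHO-K1 cells stably expressing hTGR5, in PBS with IBMX and cAMP antibody, treated with half-log compound dilutions for 1 h at room temperature. cAMP measured by enzyme-fragment complementation luminescence after overnight detection; EC50 values reported.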
For orientation: Cyclic AMP is a second messenger, typically raised through Gs and lowered through Gi signalling.

Data set [1] concerns the target T2, mouse TGR5 receptor (Mus musculus, UniProt Q80SS6).
T2 construct: host or cells: HEK293-EBNA (293 c18, ATCC CRL10852)
T2 sequence (Q80SS6 1-329): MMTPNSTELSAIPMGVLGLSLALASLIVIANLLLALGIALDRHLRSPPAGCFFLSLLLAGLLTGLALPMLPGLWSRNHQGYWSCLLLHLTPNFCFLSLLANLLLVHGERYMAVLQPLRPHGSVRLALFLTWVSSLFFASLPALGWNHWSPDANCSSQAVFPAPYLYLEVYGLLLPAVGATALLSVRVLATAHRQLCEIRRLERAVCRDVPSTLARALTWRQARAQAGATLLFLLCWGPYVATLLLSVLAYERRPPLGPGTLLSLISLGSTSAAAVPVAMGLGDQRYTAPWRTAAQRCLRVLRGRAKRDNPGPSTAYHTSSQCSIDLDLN
Nature of the data set: Mouse TGR5 luminescent cAMP production assay (HEK293-EBNA cells, DiscoveRx cAMP XS+ kit). The class given is cell-based. The note with it: HEK293-EBNA cells overexpressing mouse TGR5, luminescent cAMP assay; read-out: Mouse TGR5 Lum. cAMP Activity (EC50). In outline: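 HEK293-EBNA cells stably expressing mouse TGR5, resuspended in serum-free DMEM with 500 μM IBMX, were premixed 20 min with cAMP antibody, then exposed to half-log compound dilutions for 1 h at room temperature. cAMP was read by luminescent enzyme-fragment complementation (cAMP XS+) after overnight incubation; EC50 derived.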

A short description of data set [2]: Pharmacokinetic profile in mice after oral gavage. The note with it: mouse; fasted male Hilltop mice, 10 mg/kg oral gavage, plasma; read-out: Cmax. Type of data set: in vivo, mouse. In short, it runs like this: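 Fasted 8-week male Hilltop mice given 10 mg/kg orally in 20% PEG400/80% 0.5% CMC + 0.25% Tween-80. EDTA plasma sampled 0-4 h, measured by LC-MS/MS (MRM, positive ion); Cmax and AUC derived non-compartmentally, values being means of three mice.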

For data set [3], the target named is T2, mouse TGR5 receptor. The data set can be described thus: Mouse TGR5 HTRF cAMP production assay (HEK293-EBNA cells, Cisbio cAMP HiRange kit). The class given is cell-based. The note with it: HEK293-EBNA cells overexpressing mouse TGR5, HTRF cAMP assay. In outline: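 HEK293-EBNA cells stably expressing mouse TGR5 (episomal vector) were suspended in serum-free DMEM with 500 μM IBMX and exposed to 12-point half-log compound dilutions for 1 h at room temperature. cAMP was detected by HTRF (d2-cAMP/anti-cAMP cryptate, 1 h, room temperature), giving EC50 from duplicates.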

A word on the pEC50: it is −log10 of the EC50, conventionally taken in molar units. As to `O=C(NCCc1ccc(C(F)(F)F)cc1)[C@@H]1CCN1c1cc(N2CCC(CO)CC2)nc(C(F)(F)F)n1` [Compound 220, (S)-1-(6-(4-(hydroxymethyl)piperidin-1-yl)-2-(trifluoromethyl)pyrimidin-4-yl)-N-(4-(trifluoromethyl)-phenethyl)azetidine-2-carboxamide], the negative logarithm of the EC50 (pEC50) in the data set with Mouse STC-1 cells, at human TGR5 receptor and at mouse TGR5 receptor [1] was above 7.00 in each case.
On to `O=C(NCCc1ccc(C(F)(F)F)cc1)[C@@H]1CCCN1c1cc(OC2CCOCC2)nc(C(F)(F)F)n1` [Compound 40, (S)-1-(6-((tetrahydro-2H-pyran-4-yl)oxy)-2-(trifluoromethyl)pyrimidin-4-yl)-N-(4-(trifluoromethyl)phenethyl)pyrrolidine-2-carboxamide], for which the pEC50 in the data set on Mouse STC-1 cells is 6.00 to 7.00; at human TGR5 receptor, above 7.00; at mouse TGR5 receptor [1], above 7.00.
As to `CS(=O)(=O)c1ccc(-c2cc(N3CCC[C@H]3C(=O)NCCc3ccc(C#N)cc3)nc(C(F)(F)F)n2)cc1` [Compound 152, (S)-N-(4-cyanophenethyl)-1-(6-(4-(methylsulfonyl)phenyl)-2-(trifluoromethyl)pyrimidin-4-yl)pyrrolidine-2-carboxamide], the pEC50 was 6.00 to 7.00 with Mouse STC-1 cells, 6.00 to 7.00 on human TGR5 receptor and above 7.00 on mouse TGR5 receptor [1].
With `N#Cc1ccc(CCNC(=O)[C@@H]2CCCN(c3cc(N4CCC(CCO)CC4)nc(C(F)(F)F)n3)C2)cc1` [Compound 309, (R)-N-(4-cyanophenethyl)-1-(6-(4-(2-hydroxyethyl)piperidin-1-yl)-2-(trifluoromethyl)pyrimidin-4-yl)piperidine-3-carboxamide], the pEC50 in the data set with Mouse STC-1 cells is 6.00 to 7.00; on human TGR5 receptor, above 7.00; on mouse TGR5 receptor [1] it was above 7.00.
Usually Cmax stands for the peak of the concentration-time curve. As to `N#Cc1ccc(CCNC(=O)[C@@H]2C[C@@H](O)CN2c2cc(N3CCC(CCO)CC3)nc(C(F)(F)F)n2)cc1` [Compound 210, (2S,4R)—N-(4-cyanophenethyl)-4-hydroxy-1-(6-(4-(2-hydroxyethyl)piperidin-1-yl)-2-(trifluoromethyl)pyrimidin-4-yl)pyrrolidine-2-carboxamide], in data set [2], the peak concentration (Cmax) worked out at 54 ng/mL. Also, the pEC50 at human TGR5 receptor and at mouse TGR5 receptor [1] was 6.00 to 7.00 each time.
Take `N#Cc1ccc(CCNC(=O)[C@@H]2CCCN2c2cc(OC3CCOCC3)nc(C(F)(F)F)n2)cc1` [Compound 41, (S)-N-(4-cyanophenethyl)-1-(6-((tetrahydro-2H-pyran-4-yl)oxy)-2-(trifluoromethyl)pyrimidin-4-yl)pyrrolidine-2-carboxamide]: the negative logarithm of the EC50 (pEC50) in the data set on Mouse STC-1 cells is 6.00 to 7.00; on human TGR5 receptor it was above 7.00; at mouse TGR5 receptor [1], above 7.00.
On to `N#Cc1ccc(CCNC(=O)[C@@H]2CCCN2c2cc(-c3ccc(CO)cc3)nc(C(F)(F)F)n2)cc1` [Compound 146, (S)-N-(4-cyanophenethyl)-1-(6-(4-(hydroxymethyl)phenyl)-2-(trifluoromethyl)pyrimidin-4-yl)pyrrolidine-2-carboxamide], for which the pEC50 with Mouse STC-1 cells is 4.52 to 6.00; at human TGR5 receptor, above 7.00; at mouse TGR5 receptor [1] it was above 7.00.
Consider `O=C(NCCc1ccc(C(F)(F)F)cc1)[C@@H]1CCCN(c2cc(N3CCC(CO)CC3)nc(C(F)(F)F)n2)C1` [Compound 329, (R)-1-(6-(4-(hydroxymethyl)piperidin-1-yl)-2-(trifluoromethyl)pyrimidin-4-yl)-N-(4-(trifluoromethyl)-phenethyl)piperidine-3-carboxamide], for which the negative-log EC50 (pEC50) in the data set with Mouse STC-1 cells is 6.00 to 7.00; on human TGR5 receptor, above 7.00; at mouse TGR5 receptor [1] it was above 7.00.
With `O=C(NCCc1ccc(C(F)(F)F)cc1)[C@@H]1CCCN1c1cc(N2CCC(CO)CC2)nc(C(F)(F)F)n1` [Compound 2, (S)-1-(6-(4-(hydroxymethyl)piperidin-1-yl)-2-(trifluoromethyl)pyrimidin-4-yl)-N-(4-(trifluoromethyl)-phenethyl)pyrrolidine-2-carboxamide], the negative logarithm of the EC50 (pEC50) is 6.00 to 7.00 in the data set with Mouse STC-1 cells, above 7.00 at human TGR5 receptor and above 7.00 at mouse TGR5 receptor [1].
Turning to `CN(C)CC1CCN(c2cc(N3CCC[C@H]3C(=O)NCCc3ccc(C#N)cc3)nc(C(F)(F)F)n2)CC1` [Compound 19], the pEC50 was 4.52 to 6.00 with Mouse STC-1 cells, 6.00 to 7.00 on human TGR5 receptor and above 7.00 on mouse TGR5 receptor [1].
Take `N#Cc1ccc(CCNC(=O)[C@@H]2CCCN2c2cc(N3CCC(CN)CC3)nc(C(F)(F)F)n2)cc1` [Compound 47, (S)-1-(6-(4-(aminomethyl)piperidin-1-yl)-2-(trifluoromethyl)pyrimidin-4-yl)-N-(4-cyanophenethyl)pyrrolidine-2-carboxamide]: the pEC50 in the data set with Mouse STC-1 cells was 4.52 to 6.00; on human TGR5 receptor, above 7.00; at mouse TGR5 receptor [1], 6.00 to 7.00.
For `N#Cc1ccc(CCNC(=O)[C@@H]2CCCN2c2cc(-c3cc4ccccc4s3)nc(C(F)(F)F)n2)cc1` [Compound 173, (S)-1-(6-(benzo[b]thiophen-2-yl)-2-(trifluoromethyl)pyrimidin-4-yl)-N-(4-cyanophenethyl)pyrrolidine-2-carboxamide], the negative logarithm of the EC50 (pEC50) on mouse TGR5 receptor [3], on human TGR5 receptor and at mouse TGR5 receptor [1] was 6.00 to 7.00 each time.
